Measurements from patent publication US6060516A, “N^1 -propargylhydrazines, N^2 -propargylhydrazines and their analogs for the treatment of depression, anxiety and neurodegeneration” (CV Technologies, Inc., priority 1998, dated 2000).

What was measured:
[1] = test system: rat brain and liver monoamine oxidase-A; assay: Monoamine oxidase-A inhibiting activity ex vivo; assay type: in vivo; details: 5.75 μmol/kg, 5 hr, i.p. in 10% DMSO
Experimental: (§1) Radiolabelled 5-hydroxytryptamine was used as a substrate for monoamine oxidase-A. The compounds of interest were either injected intraperitonealy in DMSO or administered by gavage in water for various periods. The animals were killed by decapitation and the brains and livers immediately removed and frozen until assayed for monoamine oxidase-A activity. Tissues were homogenized and appropriately diluted in buffer prior to incubation. Incubations proceeded at 37° C. for 10 minutes. Incubation was terminated by the addition of acid and the radiolabelled product (5-hydroxyindoleacetaldehyde and 5-hydroxyindoleacetic acid) was extracted and quantified by liquid scintillation counting procedures. Incubations were done in triplicate and incubations containing phenelzine were included for comparison. The percent inhibition of monoamine oxidase-A activity compared to controls containing no drug was calculated.
Values are the mean ± the standard error based on (n) determinations.
Oral doses were administered as 75 μmol/kg on day 1, 75 μmol/kg on
day 2 and the animals were killed 5 hours later.

[2] = test system: DSP-4 induced noradrenaline depletion in mouse hippocampus; assay: Prevention of DSP-4 induced noradrenaline depletion in mouse hippocampus; assay type: in vivo
Experimental: (§2) Neuroprotectant activity was evaluated by examining the prevention of DSP-4 induced noradrenaline depletion in mouse hippocampus as described in Yu, P. H., Davis, B. A., Fang, J. and Boulton, A. A. (1994), Neuroprotective effect of some monoamine oxidase-B inhibitors against DSP-4 induced noradrenaline depletion in the mouse hippocampus, J. Neurochem. 63: 1820-1828. Briefly, mice were injected (i.p.) with either 20% DMSO or potential neuroprotectants (10 mg/kg in 20% DMSO). One hour later they were injected with either water or DSP-4 (50 mg/kg in water). One week later the mice were killed and the brains removed and the hippocampus dissected out. The hippocampus was frozen and saved for estimation of noradrenaline and other aminergic neurotransmitters and their metabolites as in Sloley, B. D. and Goldberg J. I. (1991), Determination of γ-glutamyl conjugates of monoamines by means of high-performance liquid chromatography with electrochemical detection and application to gastropod tissues, J. Chromatog. 567: 49-56. The rest of the brain was frozen and retained for estimation of monoamine oxidase activities ex vivo as described earlier.

[3] = test system: MAO-A; assay: MAO-A inhibition ex vivo in DSP-4 treated mice (brain); design: species or system mouse
Experimental: as §1, with “The compounds were evaluated for ex vivo monoamine oxidase-A inhibiting activity using the radiochemical procedure of Lyles, G. A. and Callingham, B. A. (1982). […] Biochem. Pharmacol. 31: 1417-1424. Radiolabelled” for “Radiolabelled”
as §2

[4] = test system: NA, DA, 5-HT, 5-HIAA and DOPAC concentrations in rat hypothalamus; assay: Rat hypothalamus amine and amine metabolite concentrations; assay type: in vivo; details: 5.75 μmol/kg, 5 hr, ip
Experimental: The effects of various doses of CVT-P040 on the concentrations of hypothalamus amine neurotransmitters and their metabolites were evaluated by examining concentrations of noradrenaline (NA), dopamine (DA), 5-hydroxytryptamine (5-HT), 5-hydroxyindoleacetic acid (5-HIAA) and 3,4-dihydroxyphenylacetic acid (DOPAC) in rat hypothalami 5 hours after the injection of the drug. […] The brains were removed and divided in half. One half of the brain was frozen in isopentane on dry ice and retained for estimates of amino acid neurotransmitter concentrations. The other half had the hypothalamus removed and frozen on dry ice for later estimates of amines and their metabolites according to the method of Sloley, B. D. and Goldberg J. I. (1991), Determination of γ-glutamyl conjugates of monoamines by means of high-performance liquid chromatography with electrochemical detection and application to gastropod tissues, J. Chromatog. 567: 49-56. The rest of the brain was frozen on dry ice for ex vivo examination of MAO activity as described earlier.

[5] = test system: DSP-4 induced noradrenaline depletion in mouse hippocampus; assay: Prevention of DSP-4 induced noradrenaline depletion in mouse hippocampus; assay type: in vivo; details: 10 mg/kg then DSP-4 50 mg/kg; saline control experiment
[6] = molecular target: T1, rat brain monoamine oxidase-A (Rattus norvegicus, UniProt P21396); assay: Monoamine oxidase-A inhibiting activity in vitro (radiochemical, 5-hydroxytryptamine substrate, rat brain homogenate); assay type: biochemical; details: for inhibition at 100 µM: 1 × 10^-4 M; for inhibition at 10 µM: 1 × 10^-5 M; for inhibition at 1 µM: 1 × 10^-6 M; for inhibition at 0.1 µM: 1 × 10^-7 M; for inhibition at 0.01 µM: 1 × 10^-8 M
T1 construct: appropriately diluted homogenates of rat brain or liver; from tissue; host or cells: rat brain or liver homogenate
T1 sequence (P21396 1-526): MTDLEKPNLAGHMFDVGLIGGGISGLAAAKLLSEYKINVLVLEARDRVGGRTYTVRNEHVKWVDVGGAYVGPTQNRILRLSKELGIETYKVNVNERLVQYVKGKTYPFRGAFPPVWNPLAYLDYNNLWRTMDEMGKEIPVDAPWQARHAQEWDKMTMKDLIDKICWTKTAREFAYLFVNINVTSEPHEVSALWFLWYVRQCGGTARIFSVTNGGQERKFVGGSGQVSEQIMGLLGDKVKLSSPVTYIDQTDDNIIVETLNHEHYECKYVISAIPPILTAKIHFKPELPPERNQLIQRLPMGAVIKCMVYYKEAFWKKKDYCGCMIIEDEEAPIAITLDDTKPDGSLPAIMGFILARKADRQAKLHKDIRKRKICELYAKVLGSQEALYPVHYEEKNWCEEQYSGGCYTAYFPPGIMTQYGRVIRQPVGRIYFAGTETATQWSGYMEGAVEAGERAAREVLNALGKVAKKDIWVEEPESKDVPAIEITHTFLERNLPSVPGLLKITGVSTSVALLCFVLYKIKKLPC
Experimental: Radiolabelled 5-hydroxytryptamine was used as the substrate for monoamine oxidase-A. Various concentrations of the compounds were incubated in appropriately diluted homogenates of rat brain or liver in a 0.2 M potassium phosphate buffer. Incubations proceeded at 37° C. for 10 minutes. Incubation was terminated by the addition of acid and the radiolabelled product (5-hydroxyindoleacetic acid) was extracted and quantified by liquid scintillation counting procedures. Incubations were done in triplicate and incubations containing phenelzine were included for comparison. The percent inhibition of monoamine oxidase-A activity compared to controls without the compounds of the present invention was calculated.

[7] = molecular target: T2, rat brain monoamine oxidase-B (Rattus norvegicus, UniProt P19643); assay: Monoamine oxidase-B inhibiting activity in vitro (radiochemical, β-phenylethylamine substrate, rat brain homogenate); assay type: biochemical; details: for inhibition at 100 µM: 1 × 10^-4 M; for inhibition at 10 µM: 1 × 10^-5 M; for inhibition at 1 µM: 1 × 10^-6 M; for inhibition at 0.1 µM: 1 × 10^-7 M; for inhibition at 0.01 µM: 1 × 10^-8 M
T2 construct: appropriately diluted homogenates of rat brain or liver; from tissue; host or cells: rat brain or liver homogenate
T2 sequence (P19643 1-520): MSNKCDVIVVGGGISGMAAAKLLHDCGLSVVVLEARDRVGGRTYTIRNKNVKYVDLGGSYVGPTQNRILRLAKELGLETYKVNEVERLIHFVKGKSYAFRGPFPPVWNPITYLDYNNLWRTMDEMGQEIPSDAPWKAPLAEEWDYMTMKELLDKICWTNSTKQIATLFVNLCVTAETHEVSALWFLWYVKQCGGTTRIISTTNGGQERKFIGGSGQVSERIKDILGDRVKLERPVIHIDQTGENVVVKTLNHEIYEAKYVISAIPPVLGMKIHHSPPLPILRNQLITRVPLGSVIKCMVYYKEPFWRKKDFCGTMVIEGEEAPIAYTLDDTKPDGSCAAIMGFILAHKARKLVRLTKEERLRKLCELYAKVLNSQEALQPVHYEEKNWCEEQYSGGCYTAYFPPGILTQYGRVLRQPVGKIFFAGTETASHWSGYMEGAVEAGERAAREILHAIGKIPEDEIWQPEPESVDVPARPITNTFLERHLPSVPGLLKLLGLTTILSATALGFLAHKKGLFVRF
Experimental: Radiolabelled β-phenylethylamine was employed as a substrate for monoamine oxidase-B. Various concentrations of the compounds of interest were incubated in appropriately diluted homogenates of rat brain or liver in a 0.2 M potassium phosphate buffer. Incubations proceeded at 37° C. for 10 minutes. Incubation was terminated by the addition of acid and the radiolabelled product (phenylacetaldehyde and phenylacetic acid) was extracted and quantified by liquid scintillation counting procedures. Incubations were done in triplicate and incubations containing phenelzine were included for comparison. The percent inhibition of monoamine oxidase-B activity compared to controls containing no drug was calculated.

[8] = test system: PC12 cells; assay: PC12 neurite outgrowth (neurotrophic effect); assay type: cell-based; details: for Index of Neurite Outgrowth: seven days
Experimental: The effects of CVT-P040 on neurite outgrowth in cell culture were investigated using an established PC 12 pheochromocytoma cell culture. The effects of CVT-P040 and nerve growth factor on neurite outgrowth were estimated using the method described by Rydel, R. E and Greene, L. A.(1987), Acidic and basic fibroblast growth factors promote stable neurite outgrowth and basic neuronal differentiation in cultures of PC12 cells, J. Neuroscience 7: 3639-3653. Briefly, PC12 cells were seeded and maintained in 100 cm^2 tissue culture dishes at 37° C. in RPMI1640 media containing 1% antibiotics, 10% heat inactivated horse serum and 5% fetal bovine serum in a water saturated atmosphere of 95% air and 5% CO2. The cells were mechanically dislodged and plated into 35 mm collagen-coated tissue culture dishes containing a total of 2.0 ml complete medium at a density of […]. The medium was changed 3 times/week. Cellular responses to CVT-P040 and nerve growth factor (NGF) were determined by counting the number of PC12 cells containing processes. Photographs of the cells were taken after seven days treatment. Two cell fields were chosen in each dish and the photographs developed and printed. […] The neurite index was calculated using the following formula; Neurite Index=total neurite score (ΣS)/ total cell number (ΣN); ΣS=S1×N+S2×N +S3×N+S4×N, where N is the number of cells in each cell field.

[9] = 10 mg/kg i.p. then DSP-4 50 mg/kg, 20% DMSO control experiment

| Molecule | inhibition at 100 µM [6] | inhibition at 10 µM [6] | inhibition at 100 µM [7] | inhibition at 10 µM [7] | inhibition at 1 µM [6] | inhibition at 0.1 µM [6] | inhibition at 0.01 µM [6] | inhibition at 1 µM [7] | inhibition at 0.1 µM [7] | inhibition at 0.01 µM [7] | also measured |
| --- | --- | --- | --- | --- | --- | --- | --- | --- | --- | --- | --- |
| C#CCN(C)[C@H](C)Cc1ccccc1 [(-)-deprenyl, reference compound] |  |  |  |  |  |  |  |  |  |  | % Inhibition Monoamine Oxidase-A ([1]; brain): -0.6 ± 1.1%; % Inhibition Monoamine Oxidase-A ([1]; liver): 8.0 ± 2.2%; % NA Restoration [2, 9]: 86.6%; NA [2, 9]: 315 ± 34 ng/g; protection against DSP-4 induced noradrenaline depletion / neuroprotective effect ([2]; 10 mg/kg, mouse hippocampus, in words): significantly protected against DSP-4 induced noradrenaline depletion; MAO-A % Inhibition [3, 9]: 18.8 ± 6.0%; MAO-A % Inhibition ([3]; 10 mg/kg then DSP-4 50 mg/kg, saline control experiment): 9.9 ± 6.0%; 5-HIAA [4]: 407 ± 22 ng/g; 5-HT [4]: 821 ± 44 ng/g; DA [4]: 541 ± 44 ng/g; DOPAC [4]: 87 ng/g; NA [4]: 1510 ± 70 ng/g; % NA Restoration [5]: 73.1%; NA [5]: 432 ± 13 ng/g |
| C#CCNNCCc1ccccc1 [CVT-P039, N^2 -propargylphenelzine] | 31.6% | -25.8% | 20.9% | -0.2% |  |  |  |  |  |  |  |
| C#CCN(N)Cc1ccccc1 [CVT-P046, N^1 -propargylbenzylhydrazine] | 100% | 99.4% | 100% | 92.3% | 49.4% | 18.5% | -5% | 86.2% | 64.9% | 18.6% |  |
| C#CCN(N)c1ccccc1 [CVT-P047, N^1 -propargylphenylhydrazine] | 99.7% | 78.2% | 100% | 94.3% | 15.9% | -3.8% | -2.9% | 65.1% | 17.9% | 0.1% |  |
| NGF: nerve growth factor (NGF) |  |  |  |  |  |  |  |  |  |  | Index of Neurite Outgrowth ([8]; NGF 0.1 ng/ml): 0.58 ± 0.03; Index of Neurite Outgrowth ([8]; NGF 0.3 ng/ml): 0.79 ± 0.07; Index of Neurite Outgrowth ([8]; NGF 1.0 ng/ml): 1.16 ± 0.06; neurite outgrowth in PC12 cells ([8]; NGF 0.1, 0.3 and 1.0 ng/ml, in words): increased neurite outgrowth in PC12 cells |
